Counter-ions that a name gives are not always drawn.
Assays:
[1] = target: T1, human TYK2 kinase domain (JH1) (Homo sapiens, UniProt P29597); assay: JH1 biochemical assay for TYK2 (ADP-Glo kinase assay, recombinant JH1 catalytic domain, JAK3-974 peptide, 10 μM ATP)
T1 construct: recombinantly generated catalytic kinase (also known as JH1) domain of human JAK1, JAK2, JAK3 and TYK2
T1 sequence (P29597 897-1176 limits assumed): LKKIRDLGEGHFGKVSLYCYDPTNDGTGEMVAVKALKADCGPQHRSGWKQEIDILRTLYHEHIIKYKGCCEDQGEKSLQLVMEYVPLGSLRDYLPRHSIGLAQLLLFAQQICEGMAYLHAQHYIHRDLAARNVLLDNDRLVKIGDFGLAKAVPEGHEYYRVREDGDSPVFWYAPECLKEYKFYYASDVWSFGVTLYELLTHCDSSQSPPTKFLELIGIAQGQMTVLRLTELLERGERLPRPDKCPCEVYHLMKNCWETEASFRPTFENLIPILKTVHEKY
How it was run: (§1)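 ADP-Glo luminescence with 50 μM peptide and 100 min reactions: JAK1 4 nM with JAK3-342 peptide; JAK2, JAK3 and TYK2 at 0.2, 0.3 and 2 nM with JAK3-974 peptide. Compounds tested from 10 or 1 μM top, 11 points, 3-fold. IC50 from a 4-parameter logistic fit of normalized activity.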

[2] = target: T2, human JAK3 kinase domain (JH1) (Homo sapiens, UniProt P52333); assay: JH1 biochemical assay for JAK3 (ADP-Glo kinase assay, recombinant JH1 catalytic domain, JAK3-974 peptide, 4 μM ATP)
T2 construct: recombinantly generated catalytic kinase (also known as JH1) domain of human JAK1, JAK2, JAK3 and TYK2
T2 sequence (P52333 822-1111 limits assumed): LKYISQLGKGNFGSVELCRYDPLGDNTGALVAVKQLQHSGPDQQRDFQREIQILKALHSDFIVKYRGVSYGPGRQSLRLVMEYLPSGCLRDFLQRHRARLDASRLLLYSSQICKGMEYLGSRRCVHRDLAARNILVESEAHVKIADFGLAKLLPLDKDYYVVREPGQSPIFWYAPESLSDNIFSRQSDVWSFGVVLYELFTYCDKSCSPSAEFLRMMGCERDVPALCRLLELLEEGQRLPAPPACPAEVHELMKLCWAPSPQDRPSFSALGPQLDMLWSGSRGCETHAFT
How it was run: as §1

[3] = target: T3, human JAK2 kinase domain (JH1) (Homo sapiens, UniProt O60674); assay: JH1 biochemical assay for JAK2 (ADP-Glo kinase assay, recombinant JH1 catalytic domain, JAK3-974 peptide, 15 μM ATP)
T3 construct: recombinantly generated catalytic kinase (also known as JH1) domain of human JAK1, JAK2, JAK3 and TYK2
T3 sequence (O60674 849-1124 limits assumed): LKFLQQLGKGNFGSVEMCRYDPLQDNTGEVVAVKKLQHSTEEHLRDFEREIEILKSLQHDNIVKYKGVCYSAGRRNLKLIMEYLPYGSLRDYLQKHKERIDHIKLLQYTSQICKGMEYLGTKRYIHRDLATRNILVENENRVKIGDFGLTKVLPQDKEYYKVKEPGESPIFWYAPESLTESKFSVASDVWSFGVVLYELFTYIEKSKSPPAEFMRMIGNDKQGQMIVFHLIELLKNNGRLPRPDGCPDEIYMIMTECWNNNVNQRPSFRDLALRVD
How it was run: as §1

[4] = target: T4, human JAK1 kinase domain (JH1) (Homo sapiens, UniProt P23458); assay: JH1 biochemical assay for JAK1 (ADP-Glo kinase assay, recombinant JH1 catalytic domain, JAK3-342 peptide, 35 μM ATP)
T4 construct: recombinantly generated catalytic kinase (also known as JH1) domain of human JAK1, JAK2, JAK3 and TYK2
T4 sequence (P23458 875-1153 limits assumed): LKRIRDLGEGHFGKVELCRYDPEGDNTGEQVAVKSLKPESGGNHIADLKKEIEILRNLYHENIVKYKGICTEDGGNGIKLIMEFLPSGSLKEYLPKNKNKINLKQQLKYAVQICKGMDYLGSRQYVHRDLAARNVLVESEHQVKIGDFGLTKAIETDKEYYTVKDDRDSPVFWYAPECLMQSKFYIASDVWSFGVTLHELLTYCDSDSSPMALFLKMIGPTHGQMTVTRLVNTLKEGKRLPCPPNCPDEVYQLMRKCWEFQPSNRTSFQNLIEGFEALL
How it was run: as §1

[5] = target: Tyk2 kinase activity on STAT4 in NK92 cells (Homo sapiens, UniProt P29597); assay: pSTAT4 cell assay (MSD; NK92 cells, 30 ng/mL IL2 stimulation); format: cell-based; details: 30 ng/mL IL2, 15 minutes
Tyk2 kinase activity on STAT4 in NK92 cells, sequence (P29597 whole entry): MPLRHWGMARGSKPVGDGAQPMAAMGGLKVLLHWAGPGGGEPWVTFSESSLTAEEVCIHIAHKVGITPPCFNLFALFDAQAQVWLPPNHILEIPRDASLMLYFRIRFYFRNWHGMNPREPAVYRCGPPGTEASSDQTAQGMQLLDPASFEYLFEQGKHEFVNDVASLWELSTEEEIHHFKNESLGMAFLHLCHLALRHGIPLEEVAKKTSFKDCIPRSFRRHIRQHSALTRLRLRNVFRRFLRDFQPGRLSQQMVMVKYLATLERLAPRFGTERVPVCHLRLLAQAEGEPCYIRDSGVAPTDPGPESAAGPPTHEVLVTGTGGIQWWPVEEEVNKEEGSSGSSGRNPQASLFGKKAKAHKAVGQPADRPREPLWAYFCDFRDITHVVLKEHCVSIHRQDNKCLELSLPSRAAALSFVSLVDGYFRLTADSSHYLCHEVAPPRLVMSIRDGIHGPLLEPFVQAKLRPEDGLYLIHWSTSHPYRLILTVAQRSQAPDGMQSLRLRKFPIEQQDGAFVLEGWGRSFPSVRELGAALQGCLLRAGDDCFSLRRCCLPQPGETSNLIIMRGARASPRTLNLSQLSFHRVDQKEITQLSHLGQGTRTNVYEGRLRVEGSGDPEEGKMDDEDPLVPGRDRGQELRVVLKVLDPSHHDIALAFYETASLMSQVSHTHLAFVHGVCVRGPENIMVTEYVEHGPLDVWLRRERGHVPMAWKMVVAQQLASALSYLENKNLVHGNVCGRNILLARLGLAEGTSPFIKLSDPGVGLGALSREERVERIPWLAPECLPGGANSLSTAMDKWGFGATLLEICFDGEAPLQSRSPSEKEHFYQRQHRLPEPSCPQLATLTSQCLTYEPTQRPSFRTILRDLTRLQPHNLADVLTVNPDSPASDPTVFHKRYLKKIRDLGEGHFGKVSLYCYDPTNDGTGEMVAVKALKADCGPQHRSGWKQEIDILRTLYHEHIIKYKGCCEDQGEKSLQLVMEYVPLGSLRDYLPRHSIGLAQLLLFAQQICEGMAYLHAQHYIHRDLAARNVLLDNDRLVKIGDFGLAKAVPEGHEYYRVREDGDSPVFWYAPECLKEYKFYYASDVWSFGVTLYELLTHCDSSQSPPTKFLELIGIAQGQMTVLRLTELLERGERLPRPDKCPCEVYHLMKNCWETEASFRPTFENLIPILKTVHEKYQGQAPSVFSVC
Description: The inhibitory potency of compounds of the disclosure against the Tyk2 kinase activity on STAT4 was evaluated using an MSD-platform plate-based assay format. NK92 cells natively expressing STAT4 and Tyk2 were serum-starved to reduce background phosphorylation levels, then cells were treated compounds for 1 hr with a 10-point four-fold dilution series starting at 10 μM. Cells were then stimulated with 30 ng/mL IL2 for 15 minutes. Cells were lysed and […] levels were quantitated using an MSD plate-based assay with anti-STAT4 antibodies. The data were normalized and the percent activity versus log concentration of compound were fitted with a 4-parameter logistic model to generate to generate IC50 curves.

In the case of `C[C@@H]1CN(c2nc(-c3cnn(C4COC4)c3)cc3ncsc23)C(=O)[C@]1(C#N)C1CC1` [Example 352, (3R,4S)-3-cyclopropyl-4-methyl-1-(6-(1-(oxetan-3-yl)-1H-pyrazol-4-yl)thiazolo[5,4-c]pyridin-4-yl)-2-oxopyrrolidine-3-carbonitrile], the IC50 ([1]; TYK2 JH1, ADP-Glo) is reported as < 5 nM, the IC50 ([2]; JAK3 JH1, ADP-Glo) is reported as < 100 nM and the IC50 ([3]; JAK2 JH1, ADP-Glo) is reported as < 100 nM. For the same compound, the IC50 ([4]; JAK1 JH1, ADP-Glo) was < 100 nM and the IC50 [5] was 20 to 50 nM.
`C[C@@H]1CN(c2nc(-c3cnn(CC4(C)COC4)c3)cn3ncc(F)c23)C(=O)[C@]1(C#N)C1CC1` [Example 303, (3R,4S)-3-cyclopropyl-1-(3-fluoro-6-(1-((3-methyloxetan-3-yl)methyl)-1H-pyrazol-4-yl)pyrazolo[1,5-a]pyrazin-4-yl)-4-methyl-2-oxopyrrolidine-3-carbonitrile] was tested, and the IC50 ([1]; TYK2 JH1, ADP-Glo) was < 5 nM, the IC50 ([2]; JAK3 JH1, ADP-Glo) was < 100 nM and the IC50 ([3]; JAK2 JH1, ADP-Glo) was < 100 nM. For the same compound, the IC50 ([4]; JAK1 JH1, ADP-Glo) was < 100 nM and the IC50 [5] was 50 to 100 nM.
With `C[C@@H]1OC[C@@H]1n1cc(-c2cn3ncc(F)c3c(N3C[C@@H](C)[C@@](C#N)(C4CC4)C3=O)n2)cn1` (relative stereo) [Example 305, (3R,4S)-3-cyclopropyl-1-(3-fluoro-6-(1-((2S,3S)-2-methyloxetan-3-yl)-1H-pyrazol-4-yl)pyrazolo[1,5-a]pyrazin-4-yl)-4-methyl-2-oxopyrrolidine-3-carbonitrile and (3R,4S)-3-cyclopropyl-1-(3-fluoro-6-(1-((2R,3R)-2-methyloxetan-3-yl)-1H-pyrazol-4-yl)pyrazolo[1,5-a]pyrazin-4-yl)-4-methyl-2-oxopyrrolidine-3-carbonitrile] the IC50 ([1]; TYK2 JH1, ADP-Glo) was < 5 nM, the IC50 ([2]; JAK3 JH1, ADP-Glo) was < 100 nM and the IC50 ([3]; JAK2 JH1, ADP-Glo) was < 100 nM. For the same compound, the IC50 ([4]; JAK1 JH1, ADP-Glo) was < 100 nM and the IC50 [5] was > 100 nM.
`COc1ccc(-c2cn3nccc3c(N3C[C@@H](C)[C@@](C#N)(C4CC4)C3=O)n2)nc1` [Example 213, (3R,4S)-3-cyclopropyl-1-(6-(5-methoxypyridin-2-yl)pyrazolo[1,5-a]pyrazin-4-yl)-4-methyl-2-oxopyrrolidine-3-carbonitrile] showed an IC50 ([1]; JH1 kinase domain, ADP-Glo) of 5 to 20 nM, an IC50 ([2]; JH1 kinase domain, ADP-Glo) of 100 to 1000 nM and an IC50 ([3]; JH1 kinase domain, ADP-Glo) of 1000 to 5000 nM. The IC50 ([4]; JH1 kinase domain, ADP-Glo) was < 100 nM and the IC50 [5] was > 100 nM.
`C[C@@H]1CN(c2nc(-c3ccc(N(C)C(=O)OC(C)(C)C)nc3)cn3nccc23)C(=O)[C@]1(C#N)C1CC1` [Example 266, tert-butyl (5-(4-((3R,4S)-3-cyano-3-cyclopropyl-4-methyl-2-oxopyrrolidin-1-yl)pyrazolo[1,5-a]pyrazin-6-yl)pyridin-2-yl)(methyl)carbamate trifluoroacetate] was tested, and the IC50 ([1]; TYK2 JH1, ADP-Glo) was < 5 nM, the IC50 ([2]; JAK3 JH1, ADP-Glo) was < 100 nM and the IC50 ([3]; JAK2 JH1, ADP-Glo) was < 100 nM. For the same compound, the IC50 ([4]; JAK1 JH1, ADP-Glo) was < 100 nM and the IC50 [5] was 50 to 100 nM.
`C[C@@H]1CN(c2ccnn3cc(-c4cnn([C@@H]5COCC(F)(F)C5)c4)cc23)C(=O)[C@]1(C#N)C1CC1` (single isomer, unassigned) [Example 328] was tested, and the IC50 ([1]; TYK2 JH1, ADP-Glo) was < 5 nM, the IC50 ([2]; JAK3 JH1, ADP-Glo) was < 100 nM and the IC50 ([3]; JAK2 JH1, ADP-Glo) was < 100 nM. For the same compound, the IC50 ([4]; JAK1 JH1, ADP-Glo) was < 100 nM and the IC50 [5] was > 100 nM.
In the case of `C[C@@H]1CN(c2ccnn3cc(-n4cc(C5CN(C)CCO5)cn4)cc23)C(=O)[C@]1(C#N)C1CC1` (stereo partly drawn) [Example 317, (3R,4S)-3-cyclopropyl-4-methyl-1-(6-(4-(4-methylmorpholin-2-yl)-1H-pyrazol-1-yl)pyrrolo[1,2-b]pyridazin-4-yl)-2-oxopyrrolidine-3-carbonitrile], the IC50 ([1]; TYK2 JH1, ADP-Glo) is reported as 20 to 50 nM, the IC50 ([2]; JAK3 JH1, ADP-Glo) is reported as 100 to 1000 nM and the IC50 ([3]; JAK2 JH1, ADP-Glo) is reported as 100 to 1000 nM. For the same compound, the IC50 ([4]; JAK1 JH1, ADP-Glo) was 1000 to 5000 nM and the IC50 [5] was > 100 nM.
`CC(C)[C@@]1(C#N)C(=O)N(c2nc(-c3cnn(C)c3)cn3ncc(F)c23)C[C@H]1C` [Example 310, (3R,4S)-1-(3-fluoro-6-(1-methyl-1H-pyrazol-4-yl)pyrazolo[1,5-a]pyrazin-4-yl)-3-isopropyl-4-methyl-2-oxopyrrolidine-3-carbonitrile] was tested, and the IC50 ([1]; TYK2 JH1, ADP-Glo) was 5 to 20 nM, the IC50 ([2]; JAK3 JH1, ADP-Glo) was < 100 nM and the IC50 ([3]; JAK2 JH1, ADP-Glo) was 100 to 1000 nM. For the same compound, the IC50 ([4]; JAK1 JH1, ADP-Glo) was 100 to 1000 nM and the IC50 [5] was > 100 nM.
`C[C@@H]1CN(c2ccnn3cc(-n4cc(CC#N)cn4)cc23)C(=O)[C@]1(C#N)C1CC1` [Example 339, (3R,4S)-1-(6-(4-(cyanomethyl)-1H-pyrazol-1-yl)pyrrolo[1,2-b]pyridazin-4-yl)-3-cyclopropyl-4-methyl-2-oxopyrrolidine-3-carbonitrile] gave an IC50 ([1]; TYK2 JH1, ADP-Glo) of 20 to 50 nM, an IC50 ([2]; JAK3 JH1, ADP-Glo) of 100 to 1000 nM and an IC50 ([3]; JAK2 JH1, ADP-Glo) of 100 to 1000 nM. The IC50 ([4]; JAK1 JH1, ADP-Glo) was 100 to 1000 nM and the IC50 [5] was > 100 nM.
With `C[C@@H]1CN(c2ccnn3cc(-n4cc(C(F)F)cn4)cc23)C(=O)[C@]1(C#N)C1CC1` [Example 338, (3R,4S)-3-cyclopropyl-1-(6-(4-(difluoromethyl)-1H-pyrazol-1-yl)pyrrolo[1,2-b]pyridazin-4-yl)-4-methyl-2-oxopyrrolidine-3-carbonitrile] the IC50 ([1]; TYK2 JH1, ADP-Glo) was 20 to 50 nM, the IC50 ([2]; JAK3 JH1, ADP-Glo) was 100 to 1000 nM and the IC50 ([3]; JAK2 JH1, ADP-Glo) was 100 to 1000 nM. The IC50 ([4]; JAK1 JH1, ADP-Glo) was 1000 to 5000 nM and the IC50 [5] was > 100 nM.
For `C[C@@H]1CN(c2ccnn3cc(-c4cnn(C5(CO)CC5)c4)cc23)C(=O)[C@]1(C#N)C1CC1` [Example 322, (3R,4S)-3-cyclopropyl-1-(6-(1-(1-(hydroxymethyl)cyclopropyl)-1H-pyrazol-4-yl)pyrrolo[1,2-b]pyridazin-4-yl)-4-methyl-2-oxopyrrolidine-3-carbonitrile], the IC50 ([1]; TYK2 JH1, ADP-Glo) was < 5 nM, the IC50 ([2]; JAK3 JH1, ADP-Glo) was < 100 nM and the IC50 ([3]; JAK2 JH1, ADP-Glo) was 100 to 1000 nM. For the same compound, the IC50 ([4]; JAK1 JH1, ADP-Glo) was 100 to 1000 nM and the IC50 [5] was 50 to 100 nM.
In the case of `C[C@@H]1CN(c2ccnn3cc(-c4cnn(CC5(C)COC5)c4)cc23)C(=O)[C@]1(C#N)C1CC1` [Example 325, (3R,4S)-3-cyclopropyl-4-methyl-1-(6-(1-((3-methyloxetan-3-yl)methyl)-1H-pyrazol-4-yl)pyrrolo[1,2-b]pyridazin-4-yl)-2-oxopyrrolidine-3-carbonitrile], the IC50 ([1]; TYK2 JH1, ADP-Glo) is reported as < 5 nM, the IC50 ([2]; JAK3 JH1, ADP-Glo) is reported as < 100 nM and the IC50 ([3]; JAK2 JH1, ADP-Glo) is reported as < 100 nM. For the same compound, the IC50 ([4]; JAK1 JH1, ADP-Glo) was < 100 nM and the IC50 [5] was 20 to 50 nM.
In the case of `Cc1cc(-c2cc(N3C[C@@H](C)[C@@](C#N)(C4CC4)C3=O)c3ccnn3c2)n[nH]1` [Example 318, (3R,4S)-3-cyclopropyl-4-methyl-1-(6-(5-methyl-1H-pyrazol-3-yl)pyrazolo[1,5-a]pyridin-4-yl)-2-oxopyrrolidine-3-carbonitrile], the IC50 ([1]; TYK2 JH1, ADP-Glo) is reported as 5 to 20 nM, the IC50 ([2]; JAK3 JH1, ADP-Glo) is reported as 100 to 1000 nM and the IC50 ([3]; JAK2 JH1, ADP-Glo) is reported as 1000 to 5000 nM. The IC50 ([4]; JAK1 JH1, ADP-Glo) was 100 to 1000 nM and the IC50 [5] was > 100 nM.
For `COCc1cnn(-c2cc3c(N4C[C@@H](C)[C@@](C#N)(C5CC5)C4=O)ccnn3c2)c1` [Example 337, (3R,4S)-3-cyclopropyl-1-(6-(4-(methoxymethyl)-1H-pyrazol-1-yl)pyrrolo[1,2-b]pyridazin-4-yl)-4-methyl-2-oxopyrrolidine-3-carbonitrile], the IC50 ([1]; TYK2 JH1, ADP-Glo) was 20 to 50 nM, the IC50 ([2]; JAK3 JH1, ADP-Glo) was 100 to 1000 nM and the IC50 ([3]; JAK2 JH1, ADP-Glo) was 100 to 1000 nM. For the same compound, the IC50 ([4]; JAK1 JH1, ADP-Glo) was 100 to 1000 nM and the IC50 [5] was > 100 nM.

Source: US20260297085A1, “1 H-PYRROLO[2,3-B]PYRIDIN-4-YL]-2-OXOPYRROLIDINE-3-CARBONITRILE DERIVATIVES AS TYROSINE KINASE 2 (TYK2) INHIBITORS FOR THE TREATMENT OF INFLAMMATORY DISEASES” (BIOGEN MA INC., priority 2023, published 2026)
